Results reported in article PMC3234165 (Biochemistry, 2011).

Legend:
[1] = target: 5HT1B (serotonin receptor subtype 1B) (Homo sapiens, UniProt P28222); test: NIMH PDSP secondary binding assay
H1299 = test: Multiplex cytotoxicity assay; assay type: cell-based; conditions: Homo sapiens, NCI-H1299, read-out: IC50 H1299
Sig-1R, sigma-1 receptor = Sig-1R, sigma-1 receptor (Rattus norvegicus, UniProt Q9R0C9); test: NIMH PDSP secondary binding assay
MCF-7 = test: Multiplex cytotoxicity assay; assay type: cell-based; conditions: Homo sapiens, MCF7, read-out: IC50 MCF-7
[2] = target: T1, α-1A (α-adrenergic receptor subtype 1A) (Homo sapiens, UniProt P35348); test: NIMH PDSP secondary binding assay
T1 sequence (P35348 1-466): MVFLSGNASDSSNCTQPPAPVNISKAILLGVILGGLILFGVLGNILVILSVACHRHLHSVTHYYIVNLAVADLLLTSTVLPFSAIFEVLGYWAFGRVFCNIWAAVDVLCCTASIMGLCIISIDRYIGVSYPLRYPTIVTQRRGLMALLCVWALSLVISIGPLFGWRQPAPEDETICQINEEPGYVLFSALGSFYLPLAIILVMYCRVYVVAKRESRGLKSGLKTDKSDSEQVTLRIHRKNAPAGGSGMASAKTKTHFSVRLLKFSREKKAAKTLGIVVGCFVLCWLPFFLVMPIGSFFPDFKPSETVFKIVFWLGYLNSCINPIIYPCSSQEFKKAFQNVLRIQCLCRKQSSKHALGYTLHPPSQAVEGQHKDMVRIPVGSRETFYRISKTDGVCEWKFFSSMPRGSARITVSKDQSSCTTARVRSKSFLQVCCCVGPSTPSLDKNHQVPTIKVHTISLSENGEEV

[3] = target: T2, 5HT1A (serotonin receptor subtype 1A) (Homo sapiens, UniProt P08908); test: NIMH PDSP secondary binding assay; conditions: KI 5HT1A, NIMH PDSP; [3H]8-OH-DPAT/0.5 nM
T2 sequence (P08908 1-422): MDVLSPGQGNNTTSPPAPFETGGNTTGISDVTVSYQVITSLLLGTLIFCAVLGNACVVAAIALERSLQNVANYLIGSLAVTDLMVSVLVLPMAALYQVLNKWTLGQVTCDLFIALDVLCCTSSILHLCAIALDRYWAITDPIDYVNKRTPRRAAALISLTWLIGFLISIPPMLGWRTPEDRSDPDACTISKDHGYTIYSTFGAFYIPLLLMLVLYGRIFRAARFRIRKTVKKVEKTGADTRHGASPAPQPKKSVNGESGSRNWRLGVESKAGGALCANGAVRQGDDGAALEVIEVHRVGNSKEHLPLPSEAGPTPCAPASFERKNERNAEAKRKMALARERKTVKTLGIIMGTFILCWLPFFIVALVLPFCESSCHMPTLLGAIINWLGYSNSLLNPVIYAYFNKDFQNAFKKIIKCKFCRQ

[4] = target: H1 (histamine receptor type 1) (Homo sapiens, UniProt P35367); test: NIMH PDSP secondary binding assay
[5] = target: M5 (muscarinic acetylcholine receptor type 5) (Homo sapiens, UniProt P08912); test: NIMH PDSP secondary binding assay
Sig-2R, sigma-2 receptor = target: T3, Sig-2R, sigma-2 receptor (Rattus norvegicus, UniProt Q5U3Y7); test: NIMH PDSP secondary binding assay
T3 sequence (Q5U3Y7 1-176): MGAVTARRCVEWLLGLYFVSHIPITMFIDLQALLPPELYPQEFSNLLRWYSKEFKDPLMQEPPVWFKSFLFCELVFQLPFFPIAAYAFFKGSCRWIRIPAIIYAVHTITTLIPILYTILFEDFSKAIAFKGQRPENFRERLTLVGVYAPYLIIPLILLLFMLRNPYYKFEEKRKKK

Du145 = test: Multiplex cytotoxicity assay; assay type: cell-based; conditions: Homo sapiens, DU-145, read-out: IC50 Du145
[6] = target: NET (norepinephrine transporter) (Homo sapiens, UniProt P23975); test: NIMH PDSP secondary binding assay
[7] = target: SERT (serotonin transporter) (Homo sapiens, UniProt P31645); test: NIMH PDSP secondary binding assay
A549 = test: Multiplex cytotoxicity assay; assay type: cell-based; conditions: Homo sapiens, A549, read-out: IC50 A549
caspases 3/7, 8, and 9 = test: Caspase activation potential; assay type: cell-based; conditions: data not shown
MDA-MB-231 = test: Multiplex cytotoxicity assay; assay type: cell-based; conditions: Homo sapiens, MDA-MB-231, read-out: IC50 MDA-MB-231
HT-29 = test: Multiplex cytotoxicity assay; assay type: cell-based; conditions: Homo sapiens, HT-29, read-out: IC50 HT-29
NCI-H460 = test: Multiplex cytotoxicity assay; assay type: cell-based; conditions: Homo sapiens, NCI-H460, read-out: IC50 NCI-H460
SK-OV-3 = test: Multiplex cytotoxicity assay; assay type: cell-based; conditions: Homo sapiens, SK-OV-3, read-out: IC50 SK-OV-3
[8] = target: T4, sigma-2 receptor (sigma-2 sites) (Rattus norvegicus, UniProt Q5U3Y7); test: Competitive displacement of [3H]-DTG binding, rat liver membranes; conditions: for KI sigma-2 sites: rat liver membranes in the presence of 100 nM (+)-pentazocine, [3H]-DTG; for sigma-2/sigma-1: ratio from the KI value of sigma-1 and sigma-2 sites (membranes)
T4 sequence (Q5U3Y7 1-176): T3 sequence (Q5U3Y7 1-176)

[9] = target: H3 (histamine receptor type 3) (Homo sapiens, UniProt Q9Y5N1); test: NIMH PDSP secondary binding assay
[10] = target: β-2 (β-adrenergic receptor subtype 2) (Homo sapiens, UniProt P07550); test: NIMH PDSP secondary binding assay
[11] = target: 5HT7 (serotonin receptor subtype 7) (Homo sapiens, UniProt P34969); test: NIMH PDSP secondary binding assay
[12] = target: β-3 (β-adrenergic receptor subtype 3) (Homo sapiens, UniProt P13945); test: NIMH PDSP secondary binding assay
[13] = target: M1 (muscarinic acetylcholine receptor type 1) (Homo sapiens, UniProt P11229); test: NIMH PDSP secondary binding assay
SF-268 = test: Multiplex cytotoxicity assay; assay type: cell-based; conditions: Homo sapiens, SF-268, read-out: IC50 SF-268
MCF-10A = test: Multiplex cytotoxicity assay; assay type: cell-based; conditions: Homo sapiens, read-out: IC50 MCF-10A
[14] = target: 5HT2B (serotonin receptor subtype 2B) (Homo sapiens, UniProt P41595); test: NIMH PDSP secondary binding assay
Sequence of 5HT2B (serotonin receptor subtype 2B) (P41595 whole entry, species assumed): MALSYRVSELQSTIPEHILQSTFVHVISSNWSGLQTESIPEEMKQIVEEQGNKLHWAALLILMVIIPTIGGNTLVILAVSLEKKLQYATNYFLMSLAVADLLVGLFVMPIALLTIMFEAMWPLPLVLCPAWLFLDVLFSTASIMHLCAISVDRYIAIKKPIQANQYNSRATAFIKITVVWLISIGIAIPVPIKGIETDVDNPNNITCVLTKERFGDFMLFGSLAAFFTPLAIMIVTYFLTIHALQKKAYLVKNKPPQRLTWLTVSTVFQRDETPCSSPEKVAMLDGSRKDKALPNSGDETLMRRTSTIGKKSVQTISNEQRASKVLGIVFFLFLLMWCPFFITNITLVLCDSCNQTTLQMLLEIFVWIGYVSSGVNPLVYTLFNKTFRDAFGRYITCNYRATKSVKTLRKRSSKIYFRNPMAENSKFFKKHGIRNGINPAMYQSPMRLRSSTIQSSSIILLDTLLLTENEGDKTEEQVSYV

Sequence of β-3 (β-adrenergic receptor subtype 3) (P13945 whole entry): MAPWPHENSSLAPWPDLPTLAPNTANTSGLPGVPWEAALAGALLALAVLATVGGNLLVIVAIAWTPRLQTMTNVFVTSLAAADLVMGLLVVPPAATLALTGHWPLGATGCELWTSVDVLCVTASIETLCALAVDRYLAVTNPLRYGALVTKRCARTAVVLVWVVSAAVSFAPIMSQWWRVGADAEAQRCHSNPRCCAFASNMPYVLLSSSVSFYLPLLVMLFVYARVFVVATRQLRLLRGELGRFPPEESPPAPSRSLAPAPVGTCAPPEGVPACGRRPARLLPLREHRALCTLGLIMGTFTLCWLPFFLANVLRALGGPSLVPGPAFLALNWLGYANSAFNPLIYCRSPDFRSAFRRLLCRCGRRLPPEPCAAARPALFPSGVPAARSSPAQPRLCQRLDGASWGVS
Sequence of 5HT7 (serotonin receptor subtype 7) (P34969 whole entry, species assumed): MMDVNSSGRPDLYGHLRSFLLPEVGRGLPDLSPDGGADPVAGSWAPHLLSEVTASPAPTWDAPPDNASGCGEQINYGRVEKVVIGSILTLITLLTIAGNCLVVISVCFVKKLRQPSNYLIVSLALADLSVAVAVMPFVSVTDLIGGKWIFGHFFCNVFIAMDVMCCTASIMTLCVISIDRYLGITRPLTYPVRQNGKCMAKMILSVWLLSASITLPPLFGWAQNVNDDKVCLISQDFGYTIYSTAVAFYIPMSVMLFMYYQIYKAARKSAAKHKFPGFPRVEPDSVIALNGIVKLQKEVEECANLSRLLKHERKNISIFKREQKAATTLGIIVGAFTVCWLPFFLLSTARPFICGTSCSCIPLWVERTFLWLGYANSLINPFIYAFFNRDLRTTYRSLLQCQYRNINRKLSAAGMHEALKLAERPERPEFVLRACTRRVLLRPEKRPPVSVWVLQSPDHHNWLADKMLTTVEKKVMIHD
Sequence of M5 (muscarinic acetylcholine receptor type 5) (P08912 whole entry): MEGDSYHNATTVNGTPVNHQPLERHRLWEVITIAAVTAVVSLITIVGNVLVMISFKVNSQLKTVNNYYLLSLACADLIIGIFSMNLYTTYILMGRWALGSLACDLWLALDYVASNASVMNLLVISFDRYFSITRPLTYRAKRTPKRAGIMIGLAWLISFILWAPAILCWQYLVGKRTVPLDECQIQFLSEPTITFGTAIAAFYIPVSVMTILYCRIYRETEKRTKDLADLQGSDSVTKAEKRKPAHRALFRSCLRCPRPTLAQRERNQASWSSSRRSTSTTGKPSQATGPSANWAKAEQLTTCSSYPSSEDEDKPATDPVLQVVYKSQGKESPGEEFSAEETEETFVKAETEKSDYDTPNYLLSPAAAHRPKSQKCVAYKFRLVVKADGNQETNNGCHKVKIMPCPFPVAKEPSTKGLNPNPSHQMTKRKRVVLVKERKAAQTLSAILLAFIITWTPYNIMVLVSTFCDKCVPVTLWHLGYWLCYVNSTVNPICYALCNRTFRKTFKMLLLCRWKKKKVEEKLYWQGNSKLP
Sequence of NET (norepinephrine transporter) (P23975 whole entry, species assumed): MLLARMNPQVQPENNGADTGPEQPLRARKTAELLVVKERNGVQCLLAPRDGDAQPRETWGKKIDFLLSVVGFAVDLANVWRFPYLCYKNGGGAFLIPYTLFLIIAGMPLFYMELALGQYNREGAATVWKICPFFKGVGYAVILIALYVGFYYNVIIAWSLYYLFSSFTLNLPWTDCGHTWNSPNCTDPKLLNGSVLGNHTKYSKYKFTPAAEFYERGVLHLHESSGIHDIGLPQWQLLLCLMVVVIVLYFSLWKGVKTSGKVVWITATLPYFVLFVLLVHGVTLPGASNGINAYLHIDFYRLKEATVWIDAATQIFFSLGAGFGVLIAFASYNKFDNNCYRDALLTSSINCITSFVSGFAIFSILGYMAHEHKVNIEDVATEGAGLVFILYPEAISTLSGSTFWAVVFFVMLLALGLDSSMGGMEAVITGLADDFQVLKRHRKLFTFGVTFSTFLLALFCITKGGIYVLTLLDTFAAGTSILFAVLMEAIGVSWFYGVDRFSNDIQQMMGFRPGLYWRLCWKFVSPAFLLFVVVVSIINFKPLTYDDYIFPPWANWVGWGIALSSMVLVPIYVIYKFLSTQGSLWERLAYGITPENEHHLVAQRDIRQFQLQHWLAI
Sequence of SERT (serotonin transporter) (P31645 whole entry, species assumed): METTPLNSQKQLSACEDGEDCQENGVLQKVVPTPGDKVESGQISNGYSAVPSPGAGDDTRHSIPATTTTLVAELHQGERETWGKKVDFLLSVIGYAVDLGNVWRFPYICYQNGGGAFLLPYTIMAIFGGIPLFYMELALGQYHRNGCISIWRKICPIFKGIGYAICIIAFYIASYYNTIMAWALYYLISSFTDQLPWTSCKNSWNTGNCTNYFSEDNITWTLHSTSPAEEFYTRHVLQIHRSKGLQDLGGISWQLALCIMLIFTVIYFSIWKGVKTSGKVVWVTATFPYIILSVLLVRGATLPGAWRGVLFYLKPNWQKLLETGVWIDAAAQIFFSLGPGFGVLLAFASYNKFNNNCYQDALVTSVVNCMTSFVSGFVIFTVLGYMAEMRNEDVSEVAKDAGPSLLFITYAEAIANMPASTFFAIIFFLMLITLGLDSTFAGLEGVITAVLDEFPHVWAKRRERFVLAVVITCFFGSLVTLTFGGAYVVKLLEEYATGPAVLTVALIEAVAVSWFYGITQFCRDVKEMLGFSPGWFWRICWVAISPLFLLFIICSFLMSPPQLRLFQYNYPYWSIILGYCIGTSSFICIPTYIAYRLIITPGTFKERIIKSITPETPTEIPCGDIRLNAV
Sequence of β-2 (β-adrenergic receptor subtype 2) (P07550 whole entry): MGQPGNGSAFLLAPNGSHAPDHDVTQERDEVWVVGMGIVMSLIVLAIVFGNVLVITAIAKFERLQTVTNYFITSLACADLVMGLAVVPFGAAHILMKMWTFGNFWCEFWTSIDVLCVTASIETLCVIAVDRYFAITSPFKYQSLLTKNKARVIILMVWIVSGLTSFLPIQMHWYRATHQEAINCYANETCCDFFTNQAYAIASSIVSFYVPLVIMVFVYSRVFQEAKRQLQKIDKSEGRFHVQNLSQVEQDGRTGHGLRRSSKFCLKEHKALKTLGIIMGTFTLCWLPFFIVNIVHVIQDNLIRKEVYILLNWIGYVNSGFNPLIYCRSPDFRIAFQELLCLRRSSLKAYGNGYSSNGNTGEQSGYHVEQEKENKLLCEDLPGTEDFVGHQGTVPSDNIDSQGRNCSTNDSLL
Sequence of 5HT1B (serotonin receptor subtype 1B) (P28222 whole entry, species assumed): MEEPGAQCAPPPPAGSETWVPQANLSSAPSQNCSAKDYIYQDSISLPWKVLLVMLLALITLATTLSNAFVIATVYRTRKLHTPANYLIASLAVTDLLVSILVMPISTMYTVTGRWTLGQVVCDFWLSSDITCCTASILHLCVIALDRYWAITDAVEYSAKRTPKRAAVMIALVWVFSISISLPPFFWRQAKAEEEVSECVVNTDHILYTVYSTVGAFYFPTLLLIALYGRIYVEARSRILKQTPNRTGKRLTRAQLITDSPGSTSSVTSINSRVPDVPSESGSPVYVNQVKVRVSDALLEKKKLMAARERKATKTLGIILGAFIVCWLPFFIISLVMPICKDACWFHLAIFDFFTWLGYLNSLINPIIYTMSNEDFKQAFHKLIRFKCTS
Sequence of M1 (muscarinic acetylcholine receptor type 1) (P11229 whole entry): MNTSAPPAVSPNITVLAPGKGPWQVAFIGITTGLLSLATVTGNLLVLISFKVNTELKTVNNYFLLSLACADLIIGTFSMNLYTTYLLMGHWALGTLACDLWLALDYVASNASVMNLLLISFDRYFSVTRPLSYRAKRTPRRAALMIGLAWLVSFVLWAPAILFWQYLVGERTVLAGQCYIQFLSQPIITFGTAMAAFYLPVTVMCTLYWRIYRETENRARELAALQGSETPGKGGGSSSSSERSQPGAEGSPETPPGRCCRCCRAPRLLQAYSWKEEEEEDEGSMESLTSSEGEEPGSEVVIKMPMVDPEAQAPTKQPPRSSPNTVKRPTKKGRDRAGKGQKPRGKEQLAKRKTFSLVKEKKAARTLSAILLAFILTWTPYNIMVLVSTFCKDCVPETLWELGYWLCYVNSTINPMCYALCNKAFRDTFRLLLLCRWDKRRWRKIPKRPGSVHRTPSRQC
Sequence of H3 (histamine receptor type 3) (Q9Y5N1 whole entry): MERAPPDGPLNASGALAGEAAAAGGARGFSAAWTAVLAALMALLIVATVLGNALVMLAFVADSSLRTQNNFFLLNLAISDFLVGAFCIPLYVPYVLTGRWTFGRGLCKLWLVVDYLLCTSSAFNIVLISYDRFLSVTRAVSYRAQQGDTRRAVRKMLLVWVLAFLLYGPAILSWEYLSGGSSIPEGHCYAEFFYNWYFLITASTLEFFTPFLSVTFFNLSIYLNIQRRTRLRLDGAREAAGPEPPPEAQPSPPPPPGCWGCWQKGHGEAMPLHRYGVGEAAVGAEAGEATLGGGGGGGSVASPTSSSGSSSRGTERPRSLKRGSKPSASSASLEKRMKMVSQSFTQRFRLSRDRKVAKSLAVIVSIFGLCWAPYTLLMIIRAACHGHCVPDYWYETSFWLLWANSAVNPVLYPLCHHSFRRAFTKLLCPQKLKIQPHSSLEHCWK

Compound	Ki [1]	IC50 (H1299)	Ki (Sig-1R, sigma-1 receptor)	IC50 (MCF-7)	Ki [2]	Ki [3]	Ki [4]	Ki [5]	Ki (Sig-2R, sigma-2 receptor)	IC50 (Du145)	Ki [6]	Ki [7]	IC50 (A549)	activation of caspases 3/7, 8, and 9 (caspases 3/7, 8, and 9)	IC50 (MDA-MB-231)	IC50 (HT-29)	IC50 (NCI-H460)	IC50 (SK-OV-3)	KI sigma-2 sites [8]	sigma-2/sigma-1 [8]	also measured
CCCCCCCNCCCc1ccccc1 [2a, N-(3-Phenylpropyl)heptan-1-amine]	> 10 µM	39 ± 6 µM	0.09 µM	20 ± 1 µM	> 10 µM	0.13 µM	> 10 µM	> 10 µM	0.25 µM	25 ± 1 µM	> 10 µM	> 10 µM	83 ± 11 µM	did not activate	33 ± 2 µM	40 ± 1 µM	45 ± 5 µM	> 100 µM	nanomolar affinities	2	Ki [9]: > 10 µM; Ki [10]: > 10 µM; Ki [11]: > 10 µM; Ki [12]: > 10 µM; Ki [13]: > 10 µM; IC50 (SF-268): 63 ± 2 µM; IC50 (MCF-10A): 70 ± 5 µM; Ki [14]: > 10 µM
CCCCCCCCCCCCNCCCc1ccccc1 [3a, N-(3-Phenylpropyl)dodecan-1-amine]	> 10 µM	39 ± 0.1 µM	1.5 µM	50 ± 18 µM	> 10 µM	> 10 µM	> 10 µM	> 10 µM	3.6 µM	51 ± 4 µM	> 10 µM	> 10 µM	87 ± 70 µM	did not activate	54 ± 3 µM	42 ± 21 µM	55 ± 3 µM	60 ± 7 µM	micromolar affinities	0.4	Ki [9]: > 10 µM; Ki [10]: > 10 µM; Ki [11]: > 10 µM; Ki [12]: > 10 µM; Ki [13]: > 10 µM; IC50 (SF-268): 60 ± 14 µM; IC50 (MCF-10A): 53 ± 18 µM; Ki [14]: > 10 µM
CCCCCCCCCCCCNCCCc1ccc([N+](=O)[O-])cc1 [3b, N-(3-(4-Nitrophenyl)propyl)dodecan-1-amine]	> 10 µM	13 ± 1 µM	0.2 µM	12 ± 1 µM	> 10 µM	0.04 µM	> 10 µM	3.6 µM	0.27 µM	17 ± 0.4 µM	> 10 µM	0.7 µM	29 ± 1 µM	did not activate	15 ± 1 µM	14 ± 0.2 µM	18 ± 2 µM	16 ± 1 µM	micromolar affinities	0.5	Ki [9]: > 10 µM; Ki [10]: > 10 µM; Ki [11]: > 10 µM; Ki [12]: > 10 µM; Ki [13]: > 10 µM; IC50 (SF-268): 16 ± 1 µM; IC50 (MCF-10A): 15 ± 1 µM; Ki [14]: 7.9 µM
